The source of these data is US10709709B2, “Substituted carbonucleoside derivatives useful as anticancer agents” (Pfizer Inc., priority 2016, dated 2020).

pIC50: −log10 of the molar value.

The target of one assay is PRMT5/MEP50 protein complex (Homo sapiens (Human), UniProt O14744). Briefly: PRMT5 biochemical assay (3H-SAM methylation of H4(1-21) peptide, filter plate scintillation). As to conditions: 10 nM PRMT5/MEP50 complex, 200 nM H4(1-21) peptide, 1 uM SAM, 25 minute incubation at room temperature. Summed up: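 Scintillation read-out: after 25 min at room temperature and a TCA stop, tritiated H4(1-21) product (peptide 200 nM) is caught on a filter plate. Reaction holds 10 nM PRMT5/MEP50 and 1 uM 3H-labelled plus cold SAM in 50 mM Tris pH 8.5 with MgCl2, EDTA and TCEP. IC50 values come from a 4-parameter dose-response fit.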
Chain of PRMT5/MEP50 protein complex (O14744 other isoform, or with tags, fused parts or gaps): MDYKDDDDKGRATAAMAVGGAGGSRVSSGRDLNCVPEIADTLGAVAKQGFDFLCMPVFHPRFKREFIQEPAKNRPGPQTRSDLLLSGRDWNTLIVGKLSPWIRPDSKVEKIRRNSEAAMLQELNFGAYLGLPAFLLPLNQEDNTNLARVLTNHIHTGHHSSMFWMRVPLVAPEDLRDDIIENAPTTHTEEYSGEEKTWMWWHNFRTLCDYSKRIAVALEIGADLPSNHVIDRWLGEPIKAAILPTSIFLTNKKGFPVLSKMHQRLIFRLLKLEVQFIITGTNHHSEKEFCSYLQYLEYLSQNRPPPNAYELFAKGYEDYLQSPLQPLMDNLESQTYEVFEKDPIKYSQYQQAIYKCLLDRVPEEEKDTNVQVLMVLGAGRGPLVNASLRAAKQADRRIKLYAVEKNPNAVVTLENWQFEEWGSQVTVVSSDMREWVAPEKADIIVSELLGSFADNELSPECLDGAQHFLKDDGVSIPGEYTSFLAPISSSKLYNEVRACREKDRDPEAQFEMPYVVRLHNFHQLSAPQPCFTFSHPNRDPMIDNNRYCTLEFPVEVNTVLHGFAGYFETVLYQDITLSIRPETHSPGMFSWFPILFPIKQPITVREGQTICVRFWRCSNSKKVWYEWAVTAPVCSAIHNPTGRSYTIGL
Chain of PRMT5/MEP50 protein complex (Q9BQA1 whole entry partner): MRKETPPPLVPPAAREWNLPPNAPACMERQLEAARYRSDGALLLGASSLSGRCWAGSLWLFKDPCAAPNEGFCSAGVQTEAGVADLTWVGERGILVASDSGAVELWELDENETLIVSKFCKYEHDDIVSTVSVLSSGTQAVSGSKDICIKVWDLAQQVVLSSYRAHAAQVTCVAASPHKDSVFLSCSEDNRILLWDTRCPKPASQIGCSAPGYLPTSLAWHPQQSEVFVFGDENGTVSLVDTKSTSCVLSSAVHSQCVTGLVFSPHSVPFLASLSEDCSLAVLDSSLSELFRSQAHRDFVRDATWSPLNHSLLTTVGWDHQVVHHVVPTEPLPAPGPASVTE
Take `Cc1ncnc2c1ccn2[C@@H]1C[C@H](Oc2cc(-c3cnco3)cc3c2CNCC3)[C@@H](O)[C@H]1O` [Example 170, (1S,2S,3R,5S)-3-(4-methyl-7H-pyrrolo[2,3-d]pyrimidin-7-yl)-5-((6-(oxazol-5-yl)-1,2,3,4-tetrahydroisoquinolin-8-yl)oxy)cyclopentane-1,2-diol]: the pIC50 – broadly, −log10 of the IC50, conventionally taken in molar units – is 9.00.
On the same count and under the same terms, the same measure for `CO[C@H]1C[C@@H](n2ccc3c(C)ncnc32)[C@H](O)[C@@H]1O` (racemic) [Example 59, (+/−)-(1S,2S,3S,5R)-3-methoxy-5-(4-methyl-7H-pyrrolo[2,3-d]pyrimidin-7-yl)cyclopentane-1,2-diol]: 5.24; for `Cc1ncnc2c1ccn2[C@H]1C[C@@H](Oc2ccccc2C#N)[C@H](O)[C@@H]1O` [Example 65, 2-(((1R,2R,3R,4S)-2,3-dihydroxy-4-(4-methyl-7H-pyrrolo[2,3-d]pyrimidin-7-yl)cyclopentyl)oxy)benzonitrile]: less than 3.70; for `CN(c1cc(N)ncn1)[C@@H]1C[C@H]([C@@H](O)c2ccc(F)c(F)c2)[C@@H](O)[C@H]1O` [Example 44, (1R,2S,3R,5R)-3-[(6-aminopyrimidin-4-yl)(methyl)amino]-5-[(R)-(3,4-difluorophenyl)(hydroxy)methyl]cyclopentane-1,2-diol]: 4.77.
Same read-out and setting: next, `Cc1ncnc2c1ccn2[C@@H]1C[C@H](Oc2ncnc3c2CNCC3)[C@@H](O)[C@H]1O` [Example 156, (1S,2S,3R,5S)-3-(4-methyl-7H-pyrrolo[2,3-d]pyrimidin-7-yl)-5-((5,6,7,8-tetrahydropyrido[4,3-d]pyrimidin-4-yl)oxy)cyclopentane-1,2-diol]: 6.97; `Cc1ncnc2c1ccn2[C@@H]1C[C@H]([C@@H](O)c2ccc(F)c(Cl)c2)[C@@H](O)[C@H]1O` [Example 6, (1S,2R,3R,5R)-3-[(R)-(3-chloro-4-fluorophenyl) (hydroxy)methyl]-5-(4-methyl-7H-pyrrolo[2,3-d]pyrimidin-7-yl)cyclopentane-1,2-diol]: 6.37; `Cc1ncnc2c1ccn2[C@@H]1C[C@H]([C@@H](O)c2ccc(Cl)cc2CN)[C@@H](O)[C@H]1O` [Example 54, (1S,2R,3R,5R)-3-((R)-(2-(aminomethyl)-4-chlorophenyl)(hydroxy)methyl)-5-(4-methyl-7H-pyrrolo[2,3-d]pyrimidin-7-yl)cyclopentane-1,2-diol]: 6.90.
Same read-out and setting: the same measure for `Cc1ncnc2c1ccn2[C@@H]1C[C@H](Oc2cc(C(C)(C)O)cc3c2CNCC3)[C@@H](O)[C@H]1O` [Example 97, (1S,2S,3S,5R)-3-((6-(2-hydroxypropan-2-yl)-1,2,3,4-tetrahydroisoquinolin-8-yl)oxy)-5-(4-methyl-7H-pyrrolo[2,3-d]pyrimidin-7-yl)cyclopentane-1,2-diol]: 7.19.
Consider `Cc1ncnc2c1ccn2[C@@H]1C[C@H](Oc2ccc(F)cc2C#N)[C@@H](O)[C@H]1O` [Example 68, 2-(((1S,2S,3S,4R)-2,3-dihydroxy-4-(4-methyl-7H-pyrrolo[2,3-d]pyrimidin-7-yl)cyclopentyl)oxy)-5-fluorobenzonitrile], for which the pIC50 was less than 3.70.
Still for that read-out and setting: next, `Cc1ncnc2c1ccn2[C@@H]1C[C@H](Oc2cccc3c2CNC(C)C3)[C@@H](O)[C@H]1O` (single isomer, unassigned) [Example 185]: 8.22.
On the same count and under the same terms, next, `Cc1ncnc2c1ccn2[C@@H]1C[C@H](Oc2cccc3c2CCNC3)[C@@H](O)[C@H]1O` [Example 80, (1S,2S,3R,5S)-3-(4-methyl-7H-pyrrolo[2,3-d]pyrimidin-7-yl)-5-((1,2,3,4-tetrahydroisoquinolin-5-yl)oxy)cyclopentane-1,2-diol]: 6.89.
Regarding `Cc1ncnc2c1ccn2[C@@H]1C[C@H](Oc2ccc(F)cc2CO)[C@@H](O)[C@H]1O` [Example 135, (1S,2S,3S,5R)-3-(4-fluoro-2-(hydroxymethyl)phenoxy)-5-(4-methyl-7H-pyrrolo[2,3-d]pyrimidin-7-yl)cyclopentane-1,2-diol], the pIC50 is 4.99.
The same measure, in the same setting: next, `CN(c1ccncn1)[C@@H]1C[C@H]([C@H](O)c2ccc(F)c(F)c2)[C@@H](O)[C@H]1O` [Example 31, (1S,2R,3R,5R)-3-[(S)-(3,4-difluorophenyl)(hydroxy)methyl]-5-[methyl(pyrimidin-4-yl)amino]cyclopentane-1,2-diol]: 6.33.
On the same count and under the same terms, next, `Cc1ncnc2c1ccn2[C@@H]1C[C@H](Oc2cc(Cl)c(Cl)cc2CN)[C@@H](O)[C@H]1O` [Example 147, (1S,2S,3S,5R)-3-(2-(aminomethyl)-4,5-dichlorophenoxy)-5-(4-methyl-7H-pyrrolo[2,3-d]pyrimidin-7-yl)cyclopentane-1,2-diol]: 7.62; `Cc1ncnc2c1ccn2[C@@H]1C[C@H](Oc2ccc(F)cc2C(N)=O)[C@@H](O)[C@H]1O` [Example 70, 2-(((1S,2S,3S,4R)-2,3-dihydroxy-4-(4-methyl-7H-pyrrolo[2,3-d]pyrimidin-7-yl)cyclopentyl)oxy)-5-fluorobenzamide]: 4.87.
`Cc1nccc(N(C)[C@@H]2C[C@H]([C@H](O)c3ccc(F)c(F)c3)[C@@H](O)[C@H]2O)n1` [Example 35, (1S,2R,3R,5R)-3-[(S)-(3,4-difluorophenyl)(hydroxy)methyl]-5-[methyl(2-methylpyrimidin-4-yl)amino] cyclopentane-1,2-diol] had a pIC50 of 6.82.
On the same count and under the same terms, the same measure for `Cc1ncnc2c1ccn2[C@@H]1C[C@H]([C@H](O)c2ccc(F)cc2)[C@@H](O)[C@H]1O` [Example 9, (1S,2R,3R,5R)-3-[(S)-(4-fluorophenyl) (hydroxy)methyl]-5-(4-methyl-7H-pyrrolo[2,3-d]pyrimidin-7-yl)cyclopentane-1,2-diol]: 7.22; for `CCOc1nc(O[C@H]2C[C@@H](n3ccc4c(C)ncnc43)[C@H](O)[C@@H]2O)c2c(c1F)CCNC2` [Example 192, (1S,2S,3S,5R)-3-((3-ethoxy-4-fluoro-5,6,7,8-tetrahydro-2,7-naphthyridin-1-yl)oxy)-5-(4-methyl-7H-pyrrolo[2,3-d]pyrimidin-7-yl)cyclopentane-1,2-diol]: 7.26.
On the same count and under the same terms, next, `Cc1ncnc2c1ccn2[C@@H]1C[C@H](Oc2ccc(F)cc2)[C@@H](O)[C@H]1O` [Example 73, (1S,2S,3S,5R)-3-(4-fluorophenoxy)-5-(4-methyl-7H-pyrrolo[2,3-d]pyrimidin-7-yl)cyclopentane-1,2-diol]: 5.16.
Consider `Cc1ncnc2c1ccn2[C@@H]1C[C@H]([C@H](C)O)[C@@H](O)[C@H]1O` [Example 2, (1S,2R,3R,5R)-3-((S)-1-hydroxyethyl)-5-(4-methyl-7H-pyrrolo[2,3-d]pyrimidin-7-yl)cyclopentane-1,2-diol], for which the negative logarithm of the IC50 (pIC50) is 5.08.
Still for that read-out and setting: next, `Cc1ncnc(N(C)[C@@H]2C[C@H]([C@H](O)c3ccc(F)c(F)c3)[C@@H](O)[C@H]2O)n1` [Example 46, (1S,2R,3R,5R)-3-[(S)-(3,4-difluorophenyl)(hydroxy)methyl]-5-[methyl(4-methyl-1,3,5-triazin-2-yl)amino]cyclopentane-1,2-diol]: 6.53; `CN(c1ccnc(N)n1)[C@@H]1C[C@H]([C@@H](O)c2ccc(F)c(F)c2)[C@@H](O)[C@H]1O` [Example 40, (1R,2S,3R,5R)-3-[(2-aminopyrimidin-4-yl)(methyl)amino]-5-[(R)-(3,4 difluorophenyl)(hydroxy)methyl] cyclopentane-1,2-diol]: 5.69; `CN1CCc2c(cccc2O[C@H]2C[C@@H](n3cc(F)c4c(N)ncnc43)[C@H](O)[C@@H]2O)C1` [Example 116, (1S,2S,3R,5S)-3-(4-amino-5-fluoro-7H-pyrrolo[2,3-d]pyrimidin-7-yl)-5-((2-methyl-1,2,3,4-tetrahydroisoquinolin-5-yl)oxy)cyclopentane-1,2-diol]: 6.59.
Still for that read-out and setting: next, `Cc1ncnc(N(C)[C@@H]2C[C@H]([C@@H](O)c3ccc(F)c(F)c3)[C@@H](O)[C@H]2O)n1` [Example 47, (1S,2R,3R,5R)-3-[(R)-(3,4-difluorophenyl)(hydroxy)methyl]-5-[methyl(4-methyl-1,3,5-triazin-2-yl)amino]cyclopentane-1,2-diol]: 4.53.
Still for that read-out and setting: next, `Cc1ncnc2c1ccn2[C@H]1C[C@H](Oc2cccc3c2C(=O)NCC3)[C@@H](O)[C@H]1O` [Example 76, 8-(((1S,2S,3S,4S)-2,3-dihydroxy-4-(4-methyl-7H-pyrrolo[2,3-d]pyrimidin-7-yl)cyclopentyl)oxy)-3,4-dihydroisoquinolin-1(2H)-one]: 3.84.
In turn, `Cc1ncnc2c1ccn2[C@@H]1C[C@H](Oc2ccc(Cl)cc2OCCN)[C@@H](O)[C@H]1O` [Example 153, (1S,2S,3S,5R)-3-(2-(2-aminoethoxy)-4-chlorophenoxy)-5-(4-methyl-7H-pyrrolo[2,3-d]pyrimidin-7-yl)cyclopentane-1,2-diol] gave a pIC50 of 8.30.

Another assay relates to A549 lung adenocarcinoma cells. In words: A549 proliferation assay (Cell Titer Glo). The class given is cell-based. The settings on record: Homo sapiens, A549, 168 h, 7 days with compound, cell viability by Cell Titer Glo (ATP). Here is the method:
A549 lung adenocarcinoma cells (American Type Culture Collection) were maintained in DMEM growth media (Life Technologies) supplemented with 10% v/v heat inactivated fetal bovine serum (Sigma) and cultured at 37° C., 5% CO2. Exponentially growing A549 cells were plated in 96-well black tissue culture treated plates (Corning) at a density of […] in a volume of 100 μl culture media and allowed to adhere overnight at 37° C., 5% CO2. The following day, compound plates were prepared by making nine-point 3.3-fold dilutions in DMSO with a top concentration of 10 mM. Compounds were further diluted in culture media and 11 μl was added to the cells (final top assay concentration was 10 μM and DMSO was 0.2%). Cells were incubated with compound at 37° C., 5% CO2 for 7 days with media and compound replacement on day 4. Cell viability was assayed on Day 7 by adding 100 μl Cell Titer Glo (Promega) reagent to the plate to measure the amount of ATP present in the cells. Luminescence was read using the Envision 2104 Multilabel Reader (Perkin Elmer). The 50% inhibitory concentration (IC50) was determined using a 4-parameter fit model normalized to the DMSO control in dose response.
On the technique in general: In ATP-based viability assays light output follows the ATP content of the culture.
Take `Cc1cc2c(c(O[C@H]3C[C@@H](n4ccc5c(C)ncnc54)[C@H](O)[C@@H]3O)c1)CNCCO2` [Example 206, (1S,2S,3S,5R)-3-((8-methyl-2,3,4,5-tetrahydrobenzo[f][1,4]oxazepin-6-yl)oxy)-5-(4-methyl-7H-pyrrolo[2,3-d]pyrimidin-7-yl)cyclopentane-1,2-diol]: the negative logarithm of the IC50 (pIC50) is 5.18.
